Measured values as given in publication PMC12519263, “Antifibrotic Efficacy of a Nintedanib–Peptide Conjugate and Diagnostic Potential of a Fluorescent Companion Probe Targeting αVβ6 Integrin in Idiopathic Pulmonary Fibrosis” (ACS Pharmacology & Translational Science, 2025).

Assay: Body weight monitoring and tolerability in Study #2
Assay type: in vivo, C57Bl/6 mice
Conditions: triple oropharyngeal BLM, within the first 7 days, compared to saline group
Source text: Figure A illustrates the setup of the pharmacological experiment identified as Study #2 (see also Table S2 in the Supporting Information). After triple BLM instillation, all mice underwent μCT imaging on days 14 and 21, indicating the beginning and the end of the therapeutic window. , On day 14, the BLM-treated mice were divided into 5 groups, namely, Vehicle, NINT (23), NINT (94), PepNIN 1 (23), and Ligand 11 (23). The reference standard in our drug discovery studies is NINT (94), representing the ideal dosage (94 μmol/kg) of the FDA-approved drug that produces antifibrotic effects in the preclinical BLM model. To better emphasize the synergistic therapeutic effect of nintedanib when it is covalently conjugated with our integrin ligand, the stoichiometric dose of nintedanib within the PepNIN 1 group was reduced by four times (to 23 μmol/kg). […]
The experiments were carried out on male C57Bl/6 mice aged 7–8 weeks, purchased from Envigo (San Pietro al Natisone, Udine, Italy). […] All required measures were taken to mitigate the animals’ distress or discomfort, and a designated veterinarian or trained technicians assessed pain levels daily using a Visual Analogue Scale (VAS) ranging from 0 to 10. […]

Bleomycin hydrochloride [BLM]
body weight reduction: 10–15%
